These results are taken from PMC10403075, “Short hydrocarbon stapled ApoC2-mimetic peptides activate lipoprotein lipase and lower plasma triglycerides in mice” (Frontiers in Cardiovascular Medicine, 2023).

Residues, ends and D or L forms follow the SMILES beside them. Where only a bound is given, the exact number is not on record here.

One series deals with T1, human LPL (Homo sapiens, UniProt P06858).
T1 sequence (P06858 28-475): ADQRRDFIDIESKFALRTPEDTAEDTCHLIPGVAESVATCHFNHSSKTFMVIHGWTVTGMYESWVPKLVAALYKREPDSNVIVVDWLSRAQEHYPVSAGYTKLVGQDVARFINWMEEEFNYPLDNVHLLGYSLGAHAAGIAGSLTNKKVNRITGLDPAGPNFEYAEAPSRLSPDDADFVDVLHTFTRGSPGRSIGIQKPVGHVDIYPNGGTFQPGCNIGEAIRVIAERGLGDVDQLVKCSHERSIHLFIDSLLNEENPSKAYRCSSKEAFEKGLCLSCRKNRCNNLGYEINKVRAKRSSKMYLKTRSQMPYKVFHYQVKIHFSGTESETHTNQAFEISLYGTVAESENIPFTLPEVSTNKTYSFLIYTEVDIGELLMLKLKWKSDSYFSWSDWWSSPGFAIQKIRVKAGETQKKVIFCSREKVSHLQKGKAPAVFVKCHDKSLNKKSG
Briefly: Isothermal titration calorimetry LPL activity assay in pooled human plasma. In kind it is biochemical. The conditions noted are these: normolipidemic pooled human EDTA-plasma nearly undiluted, 1 nM human LPL injections, 25°C, initial rate, on top of endogenous activators, triplicates. As for the experimental part: Isothermal titration calorimetry (ITC) measurements, which depends upon the initial rate of reaction, were performed to assess peptide activation of LPL in nearly undiluted human plasma as previously described ([22], [23]). Peptides in 20 mM TRIS, pH 8.2 at the indicated concentrations were added to a normolipidemic EDTA-plasma pool. The reaction was initiated by three sequential injections of 1 nM human LPL. The heat of the reaction was monitored with the iTC200 calorimeter (GE Healthcare, USA) and the initial reaction rates at 25°C were converted into relative activity units.
In general terms: Isothermal titration calorimetry measures the heat released or taken up as one component is titrated into another.

Series [1] is described as follows: Circular dichroism spectroscopy. The settings on record: CD 190-250 nm, 0.1 cm cell, calculated from spectrum. Format: physicochemical. The protocol: Circular dichroism (CD) spectra were acquired on a Chirascan Q100 spectrometer. CD spectra were recorded in the190–250 nm range, using a 0.1 cm quartz cell and analyzed with Bettsele® on-line software ([24]).
Another series deals with Proteinase K (Parengyodontium album, UniProt P06873). In kind it is in vitro ADME. The conditions noted are these: pH 8.2. The protocol: (§1) Peptides (0.1 mM) were incubated at 37°C in 20 mM ammonium bicarbonate buffer at pH 8.2, with 10 ug/ml trypsin or […] Proteinase K. To test resistance to Pepsin, peptides (0.1 mM) were incubated with Pepsin (3 mg/ml) in 0.02M acetate buffer (pH 2). The amount of intact peptide was monitored over time by Matrix-assisted laser desorption/ionization time-of-flight (MALDI-TOF) on a Bruker Autoflex III instrument (Bruker Optics, Inc., USA). Internal standards (Bombesin, ACTH (1–17), ACTH (18–39) and Insulin) were used to quantify the relative amount of peptide in each sample.

Series [2] has as its target T2, LPL from bovine milk (Bos taurus, UniProt P11151).
T2 construct: LPL from bovine milk (Sigma-Aldrich); purchased Sigma-Aldrich; host or cells: bovine milk (natural source)
T2 sequence (P11151 29-478): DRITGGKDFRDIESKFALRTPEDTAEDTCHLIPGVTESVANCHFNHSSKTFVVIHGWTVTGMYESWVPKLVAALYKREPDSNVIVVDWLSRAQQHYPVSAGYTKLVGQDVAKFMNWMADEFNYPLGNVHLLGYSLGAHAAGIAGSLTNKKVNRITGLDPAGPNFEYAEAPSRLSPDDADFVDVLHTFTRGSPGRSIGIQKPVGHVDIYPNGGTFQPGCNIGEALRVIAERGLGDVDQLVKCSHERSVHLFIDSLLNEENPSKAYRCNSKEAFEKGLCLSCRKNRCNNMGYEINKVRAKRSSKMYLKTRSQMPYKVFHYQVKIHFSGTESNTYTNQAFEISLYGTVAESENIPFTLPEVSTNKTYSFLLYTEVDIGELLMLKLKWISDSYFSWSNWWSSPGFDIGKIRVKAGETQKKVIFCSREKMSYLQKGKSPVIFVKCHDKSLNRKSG
Briefly: In vitro LPL activation assay after pepsin treatment. In kind it is biochemical. The conditions noted are these: 1 h pepsin at pH 2, then pH neutralised; compared with untreated peptide, area-under-the-curve, triplicates. The protocol:
(§2) LPL activity was determined by measuring the generation of non-esterified fatty acids (NEFA). In a 96-well plate, 0–2 µM of an ApoC2 mimetic peptide, 0.83 nM of LPL from bovine milk (Sigma-Aldrich), ApoC2-deficient ethylenediaminetetraacetic acid (EDTA)-plasma (diluted with PBS to a final TG concentration of 0.67 mg/dl), 2 IU/ml heparin, 0.2% fatty acids free bovine serum albumin (BSA) (ICN Biomedicals), and PBS (Life Technologies) were combined in a final reaction volume of 50 μl. The reaction mixture was pre-incubated on ice for 30 min and incubated at 37°C for 1 h. NEFA were measured with a coupled enzyme reaction (Wako Diagnostics) in a Synergy H1 microplate reader (BioTek, USA).
as §1
Figure 4 Peptide proteolysis resistance. […]

A further series deals with Pepsin. Put plainly: Peptide proteolysis resistance, pepsin. In kind it is in vitro ADME. The conditions noted are these: peptide 0.1 mM, pepsin 3 mg/ml, 0.02M acetate buffer pH 2, 1 h, MALDI-TOF with internal standards, triplicates. As for the experimental part: as §1
The subject of series [3] is Apoc2^h/h mice. The settings on record: ApoC2 hypomorphic mice, single intravenous injection, within a few hours; cited from earlier work. The source says: (§3) We recently developed a bi-helical ApoC2 mimetic peptide called D6PV that contains 41 amino acids ([16]). ApoC2 mimetic peptides could potentially be used as a treatment for pancreatitis in patients with genetic APOC2 deficiency and for the prevention of cardiovascular disease in patients with moderate elevations in plasma triglycerides ([1]). […] Except for one amino acid substitution, the secon ...

For another series, the system named is hAPOC3-tg mice. The settings on record: ApoC3 transgenic mice; cited from earlier work.
Text: as §3

The subject of a further series is trypsin. Put plainly: Peptide proteolysis resistance, trypsin. In kind it is in vitro ADME. The settings on record: peptide 0.1 mM, 10 ug/ml trypsin, 20 mM ammonium bicarbonate pH 8.2, 37°C, MALDI-TOF with internal standards, first time point 3 h, triplicates. The protocol:
as §1

Series [4] has as its target T2, LPL from bovine milk. Put plainly: In vitro LPL activity assay (NEFA generation, ApoC2-deficient plasma substrate). Format: biochemical. As for the experimental part:
as §2

For series [5], the system named is Apoc2^h/h mice. Put plainly: Plasma lipids in ApoC2-hypomorphic mice after peptide injection. In kind it is in vivo, mouse. The settings on record: single IP 1 umole/kg, n = 4. As for the experimental part: ApoC2–hypomorphic mice (Apoc2^h/h) ([25]) and human ApoC3-transgenic (hAPOC3-tg) mice ([26]) were fed a regular rodent chow diet (NIH-31 chow diet: Zeigler Brothers Inc.). Peptides dissolved in 20 mM TRIS (pH 8.2) or vehicle control were injected intraperitoneally or intravenously at the indicated concentrations. Blood samples were collected from the retro-orbital sinus with a heparinized capillary tube. Whole blood was centrifuged at 1,000 g for 20 min at 4°C to obtain plasma. All animal procedures were approved by the National Heart, Lung, and Blood Institute Animal Care and Use Committee (protocol #H-0050).

Sequence of Proteinase K (P06873 106-384): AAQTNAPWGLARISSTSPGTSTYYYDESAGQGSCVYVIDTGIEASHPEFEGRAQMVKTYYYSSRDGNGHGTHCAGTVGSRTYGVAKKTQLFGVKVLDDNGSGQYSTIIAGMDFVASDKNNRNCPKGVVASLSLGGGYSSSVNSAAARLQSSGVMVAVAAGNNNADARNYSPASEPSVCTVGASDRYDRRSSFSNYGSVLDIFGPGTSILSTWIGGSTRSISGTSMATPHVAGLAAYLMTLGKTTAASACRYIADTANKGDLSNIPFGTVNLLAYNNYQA

On to `CC[C@H](C)[C@H](NC(=O)CNC(=O)[C@@H](NC(=O)[C@H](Cc1ccc(O)cc1)NC(=O)[C@@H](NC(=O)[C@H](CO)NC(=O)[C@@H](NC(=O)[C@H](C)NC(=O)[C@@H]1CCCN1C(=O)[C@@H](NC(=O)[C@H](Cc1ccccc1)NC(=O)[C@H](CCCCN)NC(=O)[C@H](CCC(=O)O)NC(=O)[C@H](Cc1ccc(O)cc1)NC(=O)[C@H](CC(C)C)NC(=O)[C@H](CC(=O)O)NC(=O)[C@H](CCCNC(=N)N)NC(=O)[C@H](CC(C)C)NC(=O)[C@H](CCCCN)NC(=O)[C@H](CCC(=O)O)NC(=O)[C@H](Cc1ccccc1)NC(=O)[C@@H](NC(=O)[C@H](CCC(=O)O)NC(=O)[C@H](CCCCN)NC(=O)[C@H](CC(C)C)NC(=O)[C@H](Cc1ccc(O)cc1)NC(=O)[C@@H](N)CC(=O)O)C(C)C)[C@@H](C)O)C(C)C)[C@@H](C)O)[C@@H](C)O)C(=O)N[C@@H](Cc1ccccc1)C(=O)N[C@H](C(=O)N[C@@H](CC(=O)O)C(=O)N[C@@H](CCC(N)=O)C(=O)N[C@H](C(=O)N[C@@H](CC(C)C)C(=O)N[C@@H](CO)C(=O)N[C@H](C(=O)N[C@@H](CC(C)C)C(=O)N[C@@H](CCCCN)C(=O)NCC(=O)N[C@@H](CCC(=O)O)C(=O)N[C@@H](CCC(=O)O)C(=O)O)C(C)C)C(C)C)[C@@H](C)O` [D6PV, reference compound] (H-DYLKEVFEKLRDLYEKFTPAVSTYTGIFTDQVLSVLKGEE-OH; N-terminus assumed), for which the “LPL activity by isothermal titration calorimetry” value at human LPL was “doubled the activity of LPL”. Further, in [1], the “alpha-helical secondary structure by CD” value is recorded as 42%. In addition, the “intact full-length peptide after Proteinase K incubation” value on Proteinase K is on record as “essentially no intact peptide was detected”. For the same compound, on LPL from bovine milk [2], the “ability to activate LPL after pepsin treatment” value was “almost completely inactive”. Besides, in the series with Pepsin, the “intact full-length peptide after pepsin incubation” value is “No intact peptide was observed”. In addition, the “plasma TG” value was “markedly lowered TG” with Apoc2^h/h mice [3] and “lowered TG” with hAPOC3-tg mice. In addition, in the series with trypsin, the “intact full-length peptide after trypsin incubation” value is recorded as “essentially no intact peptide was detected”. For the same compound, the EC50 – broadly, the concentration needed to bring the measured effect to its halfway point – on LPL from bovine milk [4] stood at 0.107 µM. In addition, in the series with Apoc2^h/h mice [5] (3 h after injection), the “reduction in plasma triglycerides” value is recorded as over 90%. Further, the plasma cholesterol result with Apoc2^h/h mice [5] is listed as “lowered plasma cholesterol”.
